Measured values: patent US10676468B2, “N-(3-heteroarylaryl)-4-arylarylcarboxamides and analogs as hedgehog pathway inhibitors and use thereof” (IMPACT Therapeutics, Inc., priority 2012, dated 2020)
pIC50: −log10 of the molar value.

What was measured:
Format in all cases: cell-based, mouse
[1] = test system: Hedgehog Signaling Pathway; assay: SHH-induced differentiation of C3H10T1/2 cells into osteoblastic cells, intracellular alkaline phosphatase activity; details: 10 nM SHH-N, 5 days, alkaline phosphatase activity (OD405), read-out: IC50 values of compounds that inhibit Hh pathway
Summary of the method: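 Mouse C3H10T1/2 cells were induced with 10 nM SHH-N alongside test compound (10 μM–10 nM) for 5 days at 37 °C. Cells were lysed in 0.2% Triton, and alkaline phosphatase activity was read at OD405 over 30 min at 37 °C with the background reading subtracted. IC50 came from a nonlinear fit against log concentration.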

[2] = test system: Hedgehog Signaling Pathway; assay: SAG-induced differentiation of C3H10T1/2 cells into osteoblastic cells, intracellular alkaline phosphatase activity; details: 1 μM SAG, 5 days, alkaline phosphatase activity (OD405), read-out: IC50 values of compounds that inhibit Hh pathway
Summary of the method: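 Mouse C3H10T1/2 cells were induced with SAG and exposed to compound (10 μM to 1 nM) for 5 days at 37 °C. Cells were lysed in 0.2% Triton, and alkaline phosphatase activity was read as OD405 over 30 min at 37 °C in pH 9.8 substrate buffer. IC50 came from a non-linear fit of background-subtracted OD405 against log concentration.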

[3] = test system: Hedgehog Signaling Pathway; assay: Gli-Luc reporter gene cell assay in C3H10T1/2/Gli-Luc cells stimulated with Shh; details: 30 nM Shh, luciferase activity (RLU), read-out: IC50 values of compounds that inhibit Hh pathway
Summary of the method: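 C3H10T1/2 cells stably carrying Gli-responsive luciferase were seeded overnight, then treated 24 h at 37 °C with compound (7-point dilution series, DMSO control) plus Shh (30 nM in added medium). Lysate luciferase RLU fitted against log concentration to derive IC50.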

[4] = Mus musculus, C3H 10T1/2, 120 h

| pIC50 [1, 4] | pIC50 [2, 4] | pIC50 ([3]; Mus musculus, C3H 10T1/2, 24 h) | pIC50 [1] | pIC50 [2] | pIC50 ([3]; 24 hours) | SMILES |
| --- | --- | --- | --- | --- | --- | --- |
| 9.57 | 7.82 | 9.55 | – | – | – | C[C@@H]1CN(c2cc(Cl)c(C(=O)Nc3ccc(Cl)c(-c4ncc(-c5ccco5)[nH]4)c3)cc2F)C[C@H](C)N1C [Example 149, N-(3-(5-(furan-2-yl)-1H-imidazol-2-yl)-4-chlorophenyl)-2-chloro-5-fluoro-4-((3S,5R)-3,4,5-trimethylpiperazin-1-yl)benzamide] |
| 7.47 | 6.55 | 8.06 | – | – | – | C[C@@H]1CN(c2ccc(C(=O)Nc3ccc(Cl)c(-c4ncc(-c5nccs5)[nH]4)c3)c(Cl)c2)C[C@H](C)N1C [Example 153, N-(3-(5-(thiazol-2-yl)-1H-imidazol-2-yl)-4-chlorophenyl)-2-chloro-4-((3S,5R)-3,4,5-trimethylpiperazin-1-yl)benzamide] |
| 7.66 | 6.75 | 8.17 | – | – | – | Cc1cc(N2C[C@@H](C)N(C)[C@@H](C)C2)ccc1C(=O)Nc1ccc(Cl)c(-c2ncc(-c3nccs3)[nH]2)c1 [Example 154, N-(3-(5-(thiazol-2-yl)-1H-imidazol-2-yl)-4-chlorophenyl)-2-methyl-4-((3S,5R)-3,4,5-trimethylpiperazin-1-yl)benzamide] |
| 9.96 | 7.89 | 9.66 | – | – | – | C[C@@H]1CN(c2ccc(C(=O)Nc3ccc(Cl)c(-c4ncc(-c5cccs5)[nH]4)c3)c(C(F)(F)F)c2)C[C@H](C)N1C [Example 155, N-(3-(5-(thiophen-2-yl)-1H-imidazol-2-yl)-4-chlorophenyl)-2-(trifluoro-methyl)-4-((3S,5R)-3,4,5-trimethylpiperazin-1-yl)benzamide] |
| 9.70 | 8.15 | 9.68 | – | – | – | Cc1c(C(=O)Nc2ccc(Cl)c(-c3ncc(-c4cccs4)[nH]3)c2)ccc(N2C[C@@H](C)N(C)[C@@H](C)C2)c1F [Example 156, N-(3-(5-(thiophen-2-yl)-1H-imidazol-2-yl)-4-chlorophenyl)-2-methyl-3-fluoro-4-((3S,5R)-3,4,5-trimethylpiperazin-1-yl)benzamide] |
| 9.82 | 8.00 | 9.64 | – | – | – | C[C@@H]1CN(c2cc(Cl)c(C(=O)Nc3ccc(Cl)c(-c4ncc(-c5cccs5)[nH]4)c3)cc2F)C[C@H](C)N1C [Example 157, N-(3-(5-(thiophen-2-yl)-1H-imidazol-2-yl)-4-chlorophenyl)-2-chloro-5-fluoro-4-((3S,5R)-3,4,5-trimethylpiperazin-1-yl)benzamide] |
| 9.38 | 8.09 | 9.52 | – | – | – | CCN1[C@H](C)CN(c2ccc(C(=O)Nc3ccc(Cl)c(-c4ncc(-c5cccs5)[nH]4)c3)c(Cl)c2)C[C@@H]1C [Example 158, N-(3-(5-(thiophen-2-yl)-1H-imidazol-2-yl)-4-chlorophenyl)-2-chloro-4-((3S,5R)-4-ethyl-3,5-dimethylpiperazin-1-yl)benzamide] |
| 9.44 | 8.00 | 9.51 | – | – | – | CC(C)N1[C@H](C)CN(c2ccc(C(=O)Nc3ccc(Cl)c(-c4ncc(-c5cccs5)[nH]4)c3)c(Cl)c2)C[C@@H]1C [Example 159, N-(3-(5-(thiophen-2-yl)-1H-imidazol-2-yl)-4-chlorophenyl)-2-chloro-4-((3S,5R)-4-isopropyl-3,5-dimethylpiperazin-1-yl)benzamide] |
| < 5.00 | 7.18 | 8.19 | – | – | – | CS(=O)(=O)c1ccc(C(=O)Nc2ccc(Cl)c(-c3ncc(-c4cccs4)[nH]3)c2)c(Cl)c1 [Example 160, N-(3-(5-(thiophen-2-yl)-1H-imidazol-2-yl)-4-chlorophenyl)-2-chloro-4-(methylsulfonyl)benzamide] |
| 7.33 | 6.46 | 7.96 | – | – | – | Cc1cc(N2C[C@@H](C)N(C)[C@@H](C)C2)ccc1C(=O)Nc1ccc(Cl)c(-c2ncc[nH]2)c1 [Example 166, N-(3-(1H-imidazol-2-yl)-4-chlorophenyl)-2-methyl-4-((3S,5R)-3,4,5-trimethylpiperazin-1-yl)benzamide] |
| 9.66 | 7.52 | 9.66 | – | – | – | Cc1cc(N2C[C@@H](C)N(C)[C@@H](C)C2)ccc1C(=O)Nc1ccc(Cl)c(-c2ncc(C(C)C)[nH]2)c1 [Example 170, N-(3-(5-isopropyl-1H-imidazol-2-yl)-4-chlorophenyl)-2-methyl-4-((3S,5R)-3,4,5-trimethylpiperazin-1-yl)benzamide] |
| 7.35 | 6.90 | 7.77 | – | – | – | CCCc1cnc(-c2cc(NC(=O)c3ccc(N4C[C@@H](C)N(C)[C@@H](C)C4)cc3C)ccc2Cl)[nH]1 [Example 172, N-(3-(5-propyl-1H-imidazol-2-yl)-4-chlorophenyl)-2-methyl-4-((3S,5R)-3,4,5-trimethylpiperazin-1-yl)benzamide] |
| – | – | – | 7.22 | 6.78 | 7.82 | CCCc1cnc(-c2cc(NC(=O)c3ccc(N4C[C@@H](C)N(C)[C@@H](C)C4)cc3Cl)ccc2Cl)[nH]1 [Example 173] |
| 7.96 | 7.04 | 8.24 | – | – | – | Cc1cc(N2C[C@@H](C)N(C)[C@@H](C)C2)ccc1C(=O)Nc1ccc(Cl)c(-c2ncc(C(C)(C)C)[nH]2)c1 [Example 174, N-(3-(5-tert-butyl-1H-imidazol-2-yl)-4-chlorophenyl)-2-methyl-4-((3S,5R)-3,4,5-trimethylpiperazin-1-yl)benzamide] |
| 8.21 | 6.75 | 8.12 | – | – | – | C[C@@H]1CN(c2ccc(C(=O)Nc3ccc(Cl)c(-c4ncc(C(C)(C)C)[nH]4)c3)c(Cl)c2)C[C@H](C)N1C [Example 175, N-(3-(5-tert-butyl-1H-imidazol-2-yl)-4-chlorophenyl)-2-chloro-4-((3S,5R)-3,4,5-trimethylpiperazin-1-yl)benzamide] |
| 8.41 | 8.14 | 9.01 | – | – | – | C[C@@H]1CN(c2ccc(C(=O)Nc3ccc(Cl)c(-c4ncc(C5CC5)[nH]4)c3)c(Cl)c2)C[C@H](C)N1C [Example 176, N-(3-(5-cyclopropyl-1H-imidazol-2-yl)-4-chlorophenyl)-2-chloro-4-((3S,5R)-3,4,5-trimethylpiperazin-1-yl)benzamide] |
| 9.00 | 7.64 | 9.17 | – | – | – | Cc1cc(N2C[C@@H](C)N(C)[C@@H](C)C2)ccc1C(=O)Nc1ccc(Cl)c(-c2ncc(C3CC3)[nH]2)c1 [Example 177, N-(3-(5-cyclopropyl-1H-imidazol-2-yl)-4-chlorophenyl)-2-methyl-4-((3S,5R)-3,4,5-trimethylpiperazin-1-yl)benzamide] |
| 9.52 | 7.59 | 9.00 | – | – | – | C[C@@H]1CN(c2ccc(C(=O)Nc3ccc(Cl)c(-c4ncc(C5CC5)[nH]4)c3)c(C(F)(F)F)c2)C[C@H](C)N1C [Example 178, N-(3-(5-cyclopropyl-1H-imidazol-2-yl)-4-chlorophenyl)-2-(trifluoro-methyl)-4-((3S,5R)-3,4,5-trimethylpiperazin-1-yl)benzamide] |
| 9.41 | 7.68 | 9.37 | – | – | – | Cc1c(C(=O)Nc2ccc(Cl)c(-c3ncc(C4CC4)[nH]3)c2)ccc(N2C[C@@H](C)N(C)[C@@H](C)C2)c1F [Example 179, N-(3-(5-cyclopropyl-1H-imidazol-2-yl)-4-chlorophenyl)-2-methyl-3-fluoro-4-((3S,5R)-3,4,5-trimethylpiperazin-1-yl)benzamide] |
| 8.00 | 7.33 | 8.62 | – | – | – | C[C@@H]1CN(c2ccc(C(=O)Nc3ccc(Cl)c(-c4ncc(C5CCC5)[nH]4)c3)c(Cl)c2)C[C@H](C)N1C [Example 180, N-(3-(5-cyclobutyl-1H-imidazol-2-yl)-4-chlorophenyl)-2-chloro-4-((3S,5R)-3,4,5-trimethylpiperazin-1-yl)benzamide] |
| 7.72 | 7.15 | 8.49 | – | – | – | Cc1cc(N2C[C@@H](C)N(C)[C@@H](C)C2)ccc1C(=O)Nc1ccc(Cl)c(-c2ncc(C3CCC3)[nH]2)c1 [Example 181, N-(3-(5-cyclobutyl-1H-imidazol-2-yl)-4-chlorophenyl)-2-methyl-4-((3S,5R)-3,4,5-trimethylpiperazin-1-yl)benzamide] |
| 8.05 | 7.00 | 8.35 | – | – | – | C[C@@H]1CN(c2ccc(C(=O)Nc3ccc(Cl)c(-c4ncc(C5CCCC5)[nH]4)c3)c(Cl)c2)C[C@H](C)N1C [Example 182, N-(3-(5-cyclopentyl-1H-imidazol-2-yl)-4-chlorophenyl)-2-chloro-4-((3S,5R)-3,4,5-trimethylpiperazin-1-yl)benzamide] |
| 7.66 | 7.05 | 8.18 | – | – | – | Cc1cc(N2C[C@@H](C)N(C)[C@@H](C)C2)ccc1C(=O)Nc1ccc(Cl)c(-c2ncc(C3CCCC3)[nH]2)c1 [Example 183, N-(3-(5-cyclopentyl-1H-imidazol-2-yl)-4-chlorophenyl)-2-methyl-4-((3S,5R)-3,4,5-trimethylpiperazin-1-yl)benzamide] |
